Reference: patent US6716833B2, “Acetylenic α-amino acid-based sulfonamide hydroxamic acid tace inhibitors” (priority 1999, dated 2004)
Structures can show the parent of a compound that is named as a salt. Where two headings read alike, the source gives them in different places.

Experiments:
Assay type in all cases: biochemical
[1] = target: T1, MMP-1 (Homo sapiens, UniProt P03956); assay: MMP-1 inhibition (thiopeptide or fluorescent peptide substrate); details: read-out: MMP-1 IC50
T1 sequence (P03956 100-469): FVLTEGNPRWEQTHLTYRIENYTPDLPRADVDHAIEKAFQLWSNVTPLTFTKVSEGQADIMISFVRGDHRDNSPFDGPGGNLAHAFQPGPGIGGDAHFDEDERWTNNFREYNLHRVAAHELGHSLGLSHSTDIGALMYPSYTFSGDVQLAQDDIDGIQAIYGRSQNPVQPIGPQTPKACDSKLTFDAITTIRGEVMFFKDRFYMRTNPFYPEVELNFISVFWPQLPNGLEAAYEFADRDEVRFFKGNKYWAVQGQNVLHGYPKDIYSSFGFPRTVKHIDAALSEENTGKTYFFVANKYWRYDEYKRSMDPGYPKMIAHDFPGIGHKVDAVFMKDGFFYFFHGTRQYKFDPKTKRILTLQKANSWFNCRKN

[2] = target: MMP-13 (Homo sapiens, UniProt P45452); assay: MMP-13 inhibition (thiopeptide or fluorescent peptide substrate)
[3] = target: TNF-α converting enzyme (TACE) (Homo sapiens, UniProt P78536); assay: TACE inhibition (fluorescent peptidyl substrate); details: read-out: TACE IC50
TNF-α converting enzyme (TACE), sequence (P78536 215-824, species assumed): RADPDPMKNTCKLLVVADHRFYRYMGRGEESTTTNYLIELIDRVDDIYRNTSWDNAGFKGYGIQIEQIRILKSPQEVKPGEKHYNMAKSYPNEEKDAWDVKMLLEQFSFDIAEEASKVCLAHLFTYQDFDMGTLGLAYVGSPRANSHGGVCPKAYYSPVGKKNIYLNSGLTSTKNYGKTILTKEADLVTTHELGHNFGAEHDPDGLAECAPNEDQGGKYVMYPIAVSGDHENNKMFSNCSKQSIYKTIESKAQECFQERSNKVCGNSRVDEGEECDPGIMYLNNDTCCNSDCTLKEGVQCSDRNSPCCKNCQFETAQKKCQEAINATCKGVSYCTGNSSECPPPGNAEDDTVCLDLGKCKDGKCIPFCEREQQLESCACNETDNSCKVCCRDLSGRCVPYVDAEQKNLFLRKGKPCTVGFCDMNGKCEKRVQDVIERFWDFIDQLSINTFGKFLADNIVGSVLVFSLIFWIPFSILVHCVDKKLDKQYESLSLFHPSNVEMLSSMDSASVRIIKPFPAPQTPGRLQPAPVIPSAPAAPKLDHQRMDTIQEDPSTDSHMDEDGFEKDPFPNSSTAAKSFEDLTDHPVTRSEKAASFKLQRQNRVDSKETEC

[4] = target: MMP-9 (Homo sapiens, UniProt P14780); assay: MMP-9 inhibition (thiopeptide or fluorescent peptide substrate); details: read-out: MMP-9 IC50
MMP-9, sequence (P14780 94-707): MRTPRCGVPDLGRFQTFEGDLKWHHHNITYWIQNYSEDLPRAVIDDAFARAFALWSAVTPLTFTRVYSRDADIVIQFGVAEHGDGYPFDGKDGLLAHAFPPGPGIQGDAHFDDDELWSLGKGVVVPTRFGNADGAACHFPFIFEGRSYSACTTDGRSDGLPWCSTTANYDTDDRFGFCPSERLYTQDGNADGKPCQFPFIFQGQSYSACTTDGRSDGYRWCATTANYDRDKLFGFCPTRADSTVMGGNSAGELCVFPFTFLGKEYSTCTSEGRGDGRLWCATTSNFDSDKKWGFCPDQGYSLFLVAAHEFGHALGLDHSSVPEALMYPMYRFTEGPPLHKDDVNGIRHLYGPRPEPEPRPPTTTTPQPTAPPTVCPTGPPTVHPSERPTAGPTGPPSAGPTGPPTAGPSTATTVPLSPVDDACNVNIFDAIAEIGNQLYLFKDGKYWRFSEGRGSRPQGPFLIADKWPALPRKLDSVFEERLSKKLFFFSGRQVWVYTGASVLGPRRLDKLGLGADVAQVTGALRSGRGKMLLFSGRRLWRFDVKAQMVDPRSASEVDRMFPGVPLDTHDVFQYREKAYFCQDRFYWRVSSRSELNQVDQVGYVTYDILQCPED

[5] = Table 11, read-out: MMP-13 IC50
[6] = Table 10, read-out: MMP-13 IC50

SMILES	IC50 [1] [nM]	IC50 ([2]; read-out: MMP-13 IC50) [nM]	IC50 [3] [nM]	IC50 [4] [nM]	further results
CC#CCOc1ccc(S(=O)(=O)N(CCCN(CC)CC)C(C(=O)NO)C(C)C)cc1 (centres unmarked) [Example 118, 2-{{[4-(2-Butynyloxy)phenyl]sulfonyl}[3-(diethylamino)propyl]amino}-N-hydroxy-3-methylbutanamide]	121	45	154	86	–
CC#CCOc1ccc(S(=O)(=O)N(CC)C(C(=O)NO)C(C)C)cc1 (centres unmarked) [Example 108, 2-[(4-but-2-ynyloxy-Benzenesulfonyl)-ethyl-amino]-N-hydroxy-3-methyl-butyramide]	92	67	33	119	–
CC#CCOc1ccc(S(=O)(=O)N2CCN(Cc3ccc(Br)cc3)CC2C(=O)NO)cc1 (centres unmarked) [Example 233, 4-(4-Bromo-benzyl)-1-(4-but-2-ynyloxy-benzenesulfonyl)-piperazine-2-carboxylic Acid Hydroxyamide]	2830	55	184	69	–
CC#CCOc1ccc(S(=O)(=O)N2C[C@H](C)SC(C)(C)[C@@H]2C(=O)NO)cc1 [Example 272, (3S,6S)-4-{[4-(2-Butynyloxy)phenyl]sulfonyl}-N-hydroxy-2,2,6-trimethyl-3-thiomorpholinecarboxamide]	–	–	–	–	IC50 ([1]; Table 11): 7.8 nM; IC50 [2, 5]: 8.7 nM; IC50 ([3]; Table 11): 24 nM; IC50 ([4]; Table 11): 166 nM
CC#CCOc1ccc(S(=O)(=O)N2C[C@H](CN)SC(C)(C)[C@@H]2C(=O)NO)cc1 [Example 276, (3S,6S)-cis-6-(Aminomethyl)-4-{[4-(2-butynyloxy)phenyl]sulfonyl}-N-hydroxy-2,2-dimethyl-3-thiomorpholinecarboxamide Hydrochloride]	–	–	–	–	IC50 ([1]; Table 11): 21 nM; IC50 [2, 5]: 24 nM; IC50 ([3]; Table 11): 57 nM; IC50 ([4]; Table 11): 84 nM
CC#CCOc1ccc(S(=O)(=O)N2CCN(C(=O)c3cccs3)CC2C(=O)NO)cc1 (centres unmarked) [Example 226, 1-(4-but-2-ynyloxy-Benzenesulfonyl)-4-(thiophene-2-carbonyl)-piperazine-2-carboxylic Acid Hydroxyamide]	–	119	12	251	–
CC#CCOc1ccc(S(=O)(=O)N2CCNCC2C(=O)NO)cc1 (centres unmarked) [Example 214, 1-(4-but-2-ynyloxy-Benzenesulfonyl)-piperazine-2-carboxylic Acidhydroxyamide]	–	7.6	23	14	–
CC1(C)SCCN(S(=O)(=O)c2ccc(OCC#CCN)cc2)C1C(=O)NO (centres unmarked) [Example 265, 4-({4-[(4-Amino-2-butynyl)oxy]phenyl}sulfonyl)-N-hydroxy-2,2-dimethyl-3-thiomorpholine Carboxamide]	–	–	–	–	IC50 ([1]; Table 10): 97 nM; IC50 [2, 6]: 7.5 nM; IC50 ([4]; Table 10): 8.7 nM
CC#CCOc1ccc(S(=O)(=O)N2CCN(C(=O)OC)CC2C(=O)NO)cc1 (centres unmarked) [Example 228, 4-(4-but-2-ynyloxy-Benzenesulfonyl)-3-hydroxycarbamoyl-piperazine-1-carboxylic Acid Methyl Ester]	–	9.2	9	71	–
CC#CCOc1ccc(S(=O)(=O)N2CCN(Cc3ccccc3)CCC2C(=O)NO)cc1 (centres unmarked) [Example 290, 1-Benzyl-4-{[4-(2-butynyloxy)phenyl]sulfonyl}-N-hydroxy-1,4-diazepane-5-carboxamide]	287	–	83	25	–
CC1(C)SCCN(S(=O)(=O)c2ccc(OCC#CCCCCO)cc2)[C@H]1C(=O)NO [Example 269, (3S)-N-Hydroxy-4-([4-[(7-hydroxy-2-heptynyl)oxy]phenyl}sulfonyl)-2,2-dimethyl-3-thiomorpholinecarboxamide]	–	–	–	–	IC50 ([1]; Table 10): 101 nM; IC50 [2, 6]: 17 nM; IC50 ([3]; Table 10): 53 nM
CC(=O)OCC#CCOc1ccc(S(=O)(=O)N2CCSC(C)(C)[C@@H]2C(=O)NO)cc1 [Example 261, 4-[4-({(3S3-[(Hydroxyamino)carbonyl]-2,2-dimethylthiomorpholinyl}sulfonyl)phenoxy]-2-butynyl Acetate]	–	–	–	–	IC50 ([1]; Table 10): 103 nM; IC50 [2, 6]: 1.1 nM; IC50 ([3]; Table 10): 45 nM
CC1(C)SCCN(S(=O)(=O)c2ccc(OCC#CC#CCO)cc2)[C@H]1C(=O)NO [Example 262, (3S)-N-Hydroxy-4-({4-[(6-hydroxy-2,4-hexadiynyl)oxy]phenyl}sulfonyl)-2,2-dimethyl-3-thiomorpholine Carboxamide]	–	–	–	–	IC50 ([1]; Table 10): 9.9 nM; IC50 [2, 6]: 14 nM; IC50 ([3]; Table 10): 39 nM
CC#CCOc1ccc(S(=O)(=O)N2CCN(C(=O)OCc3ccccc3)CC2C(=O)NO)cc1 (centres unmarked) [Example 219, Benzyl 4-{[4-(2-Butynyloxy)phenyl]sulfonyl}-3-[(hydroxyamino)carbonyl]-1-piperazinecarboxylate]	176	10	–	45	–
CC#CCOc1ccc(S(=O)(=O)N2C=CSC(C)(C)[C@@H]2C(=O)NO)cc1 [Example 379, (3S)-4-{[4-(2-Butynyloxy)phenyl]sulfonyl}-N-hydroxy-2,2-dimethyl-3,4-dihydro-2H-1,4-thiazine-3-carboxamide]	–	–	–	–	IC50 ([1]; Table 11): 316 nM; IC50 [2, 5]: 271 nM; IC50 ([3]; Table 11): 16 nM
CC#CCOc1ccc(S(=O)(=O)NC(C(=O)NO)c2ccc(OCCOCCOCCOC)cc2)cc1 (centres unmarked) [Example 209, 2-({[4-(2-Butynyloxy)phenyl]sulfonyl}amino)-N-hydroxy-2-(4-{2-[2-(2-methoxyethoxy)ethoxy]ethoxy}phenyl)acetamide]	~10000	132	39	–	–
CC#CCOc1ccc(S(=O)(=O)N2CCN(C(=O)N(CC)CC)CC2C(=O)NO)cc1 (centres unmarked) [Example 216, 4-(4-but-2-ynyloxy-Benzenesulfonyl)-piperazine-1,3-dicarboxylic Acid 1-Diethylamide 3-Hydroxyamide]	–	97	28	221	–
CC#CCOc1ccc(S(=O)(=O)N2C[C@H](CC(=O)OC(C)(C)C)SC(C)(C)[C@@H]2C(=O)NO)cc1 [Example 277, tert-Butyl{(2S,5S)-4-{[4-(2-butynyloxy)phenyl]sulfonyl}-5-[(hydroxyamino)carbonyl]-6,6-dimethylthiomorpholinyl}acetate]	–	–	–	–	IC50 ([1]; Table 11): 7.8 nM; IC50 [2, 5]: 7.6 nM; IC50 ([3]; Table 11): 234 nM
CC#CCOc1ccc(S(=O)(=O)N2[C@@H](C(=O)NO)C(C)(C)SC[C@@H]2C)cc1 [Example 270, (3S,5S)-4-{[4-(2-Butynyloxy)phenyl]sulfonyl}-N-hydroxy-2,2,5-trimethyl-3-thiomorpholinecarboxamide]	–	–	–	–	IC50 ([1]; Table 11): 32 nM; IC50 [2, 5]: 61 nM; IC50 ([3]; Table 11): 86 nM
CC#CCOc1ccc(S(=O)(=O)NC(C(=O)NO)c2ccc(OCCN(C)C)cc2)cc1 (centres unmarked) [Example 207, 2-({[4-(2-Butynyloxy)phenyl]sulfonyl}amino){4-[2-(dimethylamino)ethoxy]phenyl}-N-hydroxyacetamide]	> 10000	112	53	–	–
CC#CCOc1ccc(S(=O)(=O)N2[C@H](C)CSC(C)(C)[C@@H]2C(=O)NO)cc1 [Example 271, (3S,5R)-4-{[4-(2-Butynyloxy)phenyl]sulfonyl}-N-hydroxy-2,2,5-trimethyl-3-thiomorpholinecarboxamide]	–	–	–	–	IC50 ([1]; Table 11): 47 nM; IC50 [2, 5]: 88 nM; IC50 ([3]; Table 11): 45 nM
CC#CCOc1ccc(S(=O)(=O)N(C)C(C(=O)NO)C(C)(C)SCc2cccnc2)cc1 (centres unmarked) [Example 152, 2-[(4-but-2-ynyloxy-Benenesulfonyl)-methyl-amino]-N-hydroxy-3-methyl-3-(pyridin-3-ylmethylsulfanyl)-butyramide]	–	–	74	3.7	IC50 ([2]; MMP-13 IC50): 1.7 nM
